# ChEMBL document CHEMBL3137667, “[Drug-induced liver injury; fourteenth updated edition of the bibliographic database of liver injuries and related drugs]” (Gastroenterol Clin Biol, 2004)
# Key:
# [1] = Times to onset, minimal and maximal, observed in the indexed observations. [column 'DELAI' in source]; settings: human
# [2] = human, serum
# [3] = human
# [4] = Highest frequency of moderate liver toxicity observed during clinical trials, expressed as a percentage. [column '% BIOL' in source]; settings: human
# [5] = human; remark: listed apart in the source
# [6] = human, serum; remark: listed apart in the source
# [7] = human; remark: listed apart in the source
# [8] = Highest frequency of acute liver toxicity observed during clinical trials, expressed as a percentage. [column '% AIGUE' in source]; settings: human
# [9] = human; remark: listed apart in the source
# [10] = Comments (NB not yet translated). [column 'COMMENTAIRES' in source]; settings: human
# [11] = human; remark: listed apart in the source
# [12] = Proposed mechanism(s) of liver damage. [column 'MEC' in source]; settings: human
# [13] = human; remark: listed apart in the source
# [14] = human; remark: listed apart in the source
# [15] = human; remark: listed apart in the source
# [16] = human; remark: listed apart in the source
# [17] = human; remark: listed apart in the source
# [18] = human, serum, 4383 h
# 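Wherever Hepatotoxicity (association with vascular disease) is given: count of indexed literature references reporting vascular liver injury in humans, e.g. peliosis hepatitis, hepatic veno-occlusive disease or Budd-Chiari syndrome.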
# 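Wherever Hepatotoxicity (benign tumour) is given: value is a count of indexed literature references citing a benign tumour confirmed by histopathology.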
# 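Wherever Hepatotoxicity (choleostasis) is given: human cholestatic liver injury, shown by histopathology or by peak ALT or AST elevation over alkaline phosphatase ratio below 2, value counts indexed literature reports.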
# 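Wherever Hepatotoxicity (chronic liver disease) is given: chronic liver injury confirmed by histopathology or persistently raised serum aminotransferase activity beyond 6 months, value given as the count of indexed literature references.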
# 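Wherever Hepatotoxicity (cirrhosis) is given: value is a count of indexed literature references reporting cirrhosis confirmed by histopathology.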
# 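Wherever Hepatotoxicity (cytolytic) is given: human cytolytic liver injury, shown by histopathology or by a ratio above 5 of peak ALT or AST elevation to alkaline phosphatase elevation, value counts indexed references.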
# 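Wherever Hepatotoxicity (granulomatous hepatitis) is given: value is a count of indexed literature references reporting granulomatous liver disease confirmed by histopathology.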
# 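Wherever Hepatotoxicity (malignant tumour) is given: malignant tumour confirmed by histopathology, value gives the count of indexed literature references reporting it.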
# 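Wherever Hepatotoxicity (severe hepatitis) is given: human clinical data: severe hepatitis, meaning potentially life-threatening liver failure or clinically observed cases, the value counts how many indexed literature references report it.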
# 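Wherever Hepatotoxicity (steatosis) is given: steatosis confirmed by histopathology, value is the count of indexed references.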
Structure (SMILES),Hepatotoxicity (time to onset) [1],Hepatotoxicity (moderate) [2],Hepatotoxicity (association with vascular disease) [3],Hepatotoxicity (moderate) [4],Hepatotoxicity (severe hepatitis) [5],Hepatotoxicity (acute) [6],Hepatotoxicity (animal toxicity known) [7],Hepatotoxicity (acute) [8],Hepatotoxicity (malignant tumour) [9],Hepatotoxicity (comment) [10],Hepatotoxicity (choleostasis) [11],Hepatotoxicity (mechanism) [12],Hepatotoxicity (benign tumour) [13],Hepatotoxicity (granulomatous hepatitis) [14],Hepatotoxicity (steatosis) [15],Hepatotoxicity (cirrhosis) [16],Hepatotoxicity (cytolytic) [17],Hepatotoxicity (chronic liver disease) [18],Hepatotoxicity (moderate) ([4]; Liver),Hepatotoxicity (severe hepatitis) ([5]; Liver),further results
CN(C)CCCN1c2ccccc2CCc2ccc(Cl)cc21 [CLOMIPRAMINE],1 week - 4 years,11,0,10.7%,0,6,yes,0%,0,RC/AMINEPTINE,2,Allergic,0,0,0,0,3,0,–,–,–
O=C(O)c1cn(C2CC2)c2cc(N3CCNCC3)c(F)cc2c1=O [CIPROFLOXACIN],2 days - 6 months,114,0,–,–,21,yes,–,0,DUCTOPENIE AC_ANTI-N/-ADN,12,"Allergic, Dose-dependant",0,0,1,0,7,1,46.4%,5,Hepatotoxicity (acute) ([8]; Liver): 0.2%
CC1=C(/C=C/C(C)=C/C=C/C(C)=C/CO)C(C)(C)CCC1 [RETINOL],11 days - 17.5 years,8,10,–,–,0,yes,–,0,I/ALCOOL,–,–,0,–,22,22,–,26,33%,1,Hepatotoxicity (acute) ([8]; Liver): 0%; Hepatotoxicity (choleostasis) ([11]; Liver): 0; Hepatotoxicity (mechanism) ([12]; Liver): Dose-dependant; Hepatotoxicity (granulomatous hepatitis) ([14]; Liver): 0; Hepatotoxicity (cytolytic) ([17]; Liver): 0
CNCCCN1c2ccccc2CCc2ccccc21 [DESIPRAMINE],1 week - 1 month,4,0,–,–,–,yes,–,0,RC/IMIPRAMINE/TRIMIPRAMINE/CYAMEMAZINE,–,–,0,–,0,0,–,0,8.7%,1,Hepatotoxicity (acute) ([8]; Liver): 0%; Hepatotoxicity (choleostasis) ([11]; Liver): 1; Hepatotoxicity (mechanism) ([12]; Liver): Allergic; Hepatotoxicity (granulomatous hepatitis) ([14]; Liver): 0; Hepatotoxicity (cytolytic) ([17]; Liver): 5
CO/N=C(\C(=O)N[C@@H]1C(=O)N2C(C(=O)O)=C(CSc3nc(=O)c(=O)[nH]n3C)CS[C@H]12)c1csc(N)n1 [CEFTRIAXONE],2 days - 25 days,71,0,30%,0,7,yes,4.6%,0,PSEUDOLITHIASE,2,Dose-dependant,0,0,0,0,3,0,–,–,–
FC(F)OC(F)C(F)(F)F (stereo unspecified),1 day - 12 days,2,0,11.1%,3,4,yes,0%,0,AC_ANTI-TFA,0,"Reactive metabolite, Allergic",0,0,0,0,4,0,–,–,–
O=c1[nH]cc(F)c(=O)[nH]1 [FLUOROURACIL],1 month - 1 year,15,1,61.2%,2,4,yes,25%,0,CHOLANGITE/IAH I/LEVAMISOLE,1,"Dose-dependant, Toxic Metabolite",0,0,4,1,2,0,–,–,–
CC(=O)[C@@]1(O)CC[C@H]2[C@@H]3C=C(Cl)C4=CC(=O)[C@@H]5C[C@@H]5[C@]4(C)[C@H]3CC[C@@]21C [CYPROTERONE],4 days - 10 years,4,0,20%,13,21,yes,13%,5,AC_ANTI-N/pCN,3,Dose-dependant,1,0,0,1,20,1,–,–,–
Clc1ccccc1CN1CCc2sccc2C1 [TICLOPIDINE],1 week - 3 years,–,0,–,–,–,yes,–,0,CHOLANGITE CHOLESTASE_PROLONGEE AC_ANTI-N,–,–,0,–,1,0,–,1,–,–,Hepatotoxicity (choleostasis) ([11]; Liver): 56; Hepatotoxicity (mechanism) ([12]; Liver): Allergic; Hepatotoxicity (granulomatous hepatitis) ([14]; Liver): 2; Hepatotoxicity (cytolytic) ([17]; Liver): 15
